Our source for the T/C values is PubChem BioAssay AID298 (DTP/NCI, 2004).

The assay has as its system MX-1 breast xenograft, intrarenal, nude mice, tumor weight. In words: NCI In Vivo Anticancer Drug Screen. Data for tumor model Human Mammary Carcinoma MX-1 Xenograft (intrarenal inoculation) in NU/NU BALB/C (nude) mice. Conditions: endpoint: mean tumor weight change, higher = larger tumour. In a few lines: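 Compounds were given to mice carrying transplanted tumors, and tumor size or survival was measured. Each value is the treated-group measurement (T) divided by the vehicle-treated control-group measurement (C).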
For orientation: Xenograft models place foreign cells or tissue in a host animal.

Where [1] appears, read: dose: 25.0 mg/kg/injection, schedule: Q04DX003 (ip), vehicle: saline with Tween-80.
[2] abbreviates: dose: 150.0 mg/kg/injection, schedule: Q04DX003 (ip), vehicle: saline with Tween-80.
Setting [3] is: dose: 300.0 mg/kg/injection, schedule: Q04DX003 (ip), vehicle: saline with Tween-80.
Where [4] appears, read: dose: 300.0 mg/kg/injection, schedule: Q04DX003 (sc), vehicle: saline.
Setting [5] is: dose: 100.0 mg/kg/injection, schedule: Q04DX003 (ip), vehicle: saline with Tween-80.
[6] abbreviates: dose: 200.0 mg/kg/injection, schedule: Q04DX003 (ip), vehicle: saline with Tween-80.
Where [7] appears, read: dose: 300.0 mg/kg/injection, schedule: Q04DX003 (sc), vehicle: Klucel (hydroxypropylcellulose) (HPC).

Structures are written as SMILES. Values joined by “and” are separate entries in the source; they are usually repeats but may differ in a detail not shown here. Identical values can stand only once. Results filed as inconclusive are left out.

As for `O=C(O)CC(NC(=O)CP(=O)(O)O)C(=O)O` (centres undefined), the T/C (dose: 50.0 mg/kg/injection, schedule: Q01DX010 (sc), vehicle: saline) is 36 % of control; the T/C (dose: 100.0 mg/kg/injection, schedule: Q01DX010 (sc), vehicle: saline) was 16 % of control; the T/C (dose: 200.0 mg/kg/injection, schedule: Q01DX010 (sc), vehicle: saline) was 5 % of control.
Consider `COc1cccc2c1C(=O)C1=C(C2=O)c2c(O)cc(CO)cc2C(O)C1O` (centres undefined), for which the T/C is, setting by setting: (dose: 6.25 mg/kg/injection, schedule: Q04DX003 (ip), vehicle: other) 84 % of control; (dose: 12.5 mg/kg/injection, schedule: Q04DX003 (ip), vehicle: other) 102 % of control; (dose: 25.0 mg/kg/injection, schedule: Q04DX003 (ip), vehicle: other) 96 % of control.
Regarding `NCCCNCCCCNC(=O)C(O)NC(=O)CCCCCCN=C(N)N` (centres undefined), the T/C under setting [1] is 69 % of control.
As to `Cc1cc2c(C(C)C)c(O)c(O)c(C=NCCO)c2c(O)c1-c1c(C)cc2c(C(C)C)c(O)c(O)c(C=NCCO)c2c1O`, the T/C was 111 % of control (dose: 75.0 mg/kg/injection, schedule: Q04DX003 (ip), vehicle: saline with Tween-80); 86 % of control under setting [2]; 58 % of control under setting [3]; 97 % of control (dose: 600.0 mg/kg/injection, schedule: Q04DX003 (ip), vehicle: saline with Tween-80); 69 % of control (dose: 1200.0 mg/kg/injection, schedule: Q04DX003 (ip), vehicle: saline with Tween-80).
As to `CCn1cnc2c(=S)nc[nH]c21`, the T/C is, setting by setting: (dose: 150.0 mg/kg/injection, schedule: Q04DX003 (sc), vehicle: saline) 91 % of control; under setting [4], 49 % of control.
`C=C1C(O)C2OC3(CCC(/C=C/C(C)C4CC5(C)SC5C5(OC(CC(C)(O)C(=O)O)CCC5O)O4)O3)CCC2OC1C(O)CC(C)C1OC2(CCCCO2)CCC1C` (centres undefined): the T/C (dose: 5.0 micrograms/kg/injection, schedule: Q04DX003 (ip), vehicle: saline + alcohol) was 92 % of control; the T/C (dose: 10.0 micrograms/kg/injection, schedule: Q04DX003 (ip), vehicle: saline + alcohol) was 84 % of control; the T/C (dose: 40.0 micrograms/kg/injection, schedule: Q04DX003 (ip), vehicle: saline + alcohol) is 56 % of control and 76 % of control.
Turning to `NC(Cc1ccc(N(CCCl)Cc2ccccc2)cc1)C(=O)O` (centres undefined), the T/C by setting is: under setting [5], 6 % of control and 14 % of control; (dose: 120.0 mg/kg/injection, schedule: Q04DX003 (ip), vehicle: saline with Tween-80) 3 % of control; under setting [6], 7 % of control and -15 % of control; (dose: 333.33 mg/kg/injection, schedule: Q04DX003 (ip), vehicle: saline with Tween-80) -90 % of control.
`Cn1c(-c2ccc(/C=N\N3CCN(/N=C/c4ccc(-c5c[n+]6ccsc6n5C)cc4)CC3)cc2)c[n+]2ccsc12`: the T/C (dose: 3.0 mg/kg/injection, schedule: Q04DX003 (ip), vehicle: saline with Tween-80) is 79 % of control.
`C1CCC2C[N-]CCC2C1.C1CCC2C[N-]CCC2C1.C1CCC2C[N-]CCC2C1.C1CCC2C[N-]CCC2C1.[Cl][Rh][Cl]` (centres undefined): the T/C runs as follows: (dose: 72.0 mg/kg/injection, schedule: Q04DX003 (sc), vehicle: saline with Tween-80) 112 % of control; (dose: 144.0 mg/kg/injection, schedule: Q04DX003 (sc), vehicle: saline with Tween-80) 124 % of control; (dose: 576.0 mg/kg/injection, schedule: Q04DX003 (sc), vehicle: saline with Tween-80) 67 % of control.
`CC1(C)CC(=O)C(CSC(=O)c2ccccc2)C(=O)C1`: the T/C (dose: 75.0 mg/kg/injection, schedule: Q04DX003 (sc), vehicle: Klucel (hydroxypropylcellulose) (HPC)) is 101 % of control; the T/C (dose: 150.0 mg/kg/injection, schedule: Q04DX003 (sc), vehicle: Klucel (hydroxypropylcellulose) (HPC)) is 101 % of control; the T/C under setting [7] was 101 % of control.
`Clc1cccc(Cl)c1C(Nc1nncs1)Nc1nncs1`: the T/C is 94 % of control under setting [5]; 73 % of control under setting [6]; 44 % of control (dose: 400.0 mg/kg/injection, schedule: Q04DX003 (ip), vehicle: saline with Tween-80).
As for `Cc1ccc(S(=O)(=O)NC(=O)OC23COCN2COC3)cc1`, the T/C is, setting by setting: (dose: 200.0 mg/kg/injection, schedule: Q04DX003 (sc), vehicle: saline with Tween-80) 123 % of control; (dose: 800.0 mg/kg/injection, schedule: Q04DX003 (sc), vehicle: saline with Tween-80) 102 % of control; (dose: 1600.0 mg/kg/injection, schedule: Q04DX003 (sc), vehicle: saline with Tween-80) 107 % of control.
`C=CCNC(=O)c1ccccc1SC(C)=O`: the T/C by setting is: under setting [2], 93 % of control; under setting [3], 99 % of control.
Regarding `N/C(=N\O)c1cn(C2OC(CO)C(O)C2O)c2ncnc(N)c12` (centres undefined), the T/C (dose: 5.0 mg/kg/injection, schedule: Q04DX003 (sc), vehicle: Klucel (hydroxypropylcellulose) (HPC)) is 91 % of control and the T/C (dose: 10.0 mg/kg/injection, schedule: Q04DX003 (sc), vehicle: Klucel (hydroxypropylcellulose) (HPC)) is 70 % of control.
Consider `C/C(=N\NC(=S)N1CC2CCC(CC2)C1)c1cccc(C)n1`, for which the T/C was 77 % of control (dose: 12.5 mg/kg/injection, schedule: Q04DX003 (ip), vehicle: saline with Tween-80); 62 % of control under setting [1]; 78 % of control (dose: 50.0 mg/kg/injection, schedule: Q04DX003 (ip), vehicle: saline with Tween-80).
Consider `CN(C)c1ccc(C(=C2C=CC(=[N+](C)C)C=C2)c2ccc(N(C)C)cc2)cc1` (tested in a mixture with another compound), for which the T/C by setting is: (dose: 15.0 mg/kg/injection, schedule: Q04DX003 (sc), vehicle: saline with Tween-80) 124 % of control; (dose: 30.0 mg/kg/injection, schedule: Q04DX003 (sc), vehicle: saline with Tween-80) 84 % of control; (dose: 60.0 mg/kg/injection, schedule: Q04DX003 (sc), vehicle: saline with Tween-80) 98 % of control; (dose: 120.0 mg/kg/injection, schedule: Q04DX003 (sc), vehicle: saline with Tween-80) 75 % of control; (dose: 150.0 mg/kg/injection, schedule: Q04DX003 (sc), vehicle: saline with Tween-80) 73 % of control.
Consider `Oc1ccc(/C=N/Nc2nnc(N/N=C/c3ccc(O)cc3O)c3ccccc23)c(O)c1`, for which the T/C reads like this: (dose: 25.0 mg/kg/injection, schedule: Q04DX003 (ip), vehicle: suspension in saline) 50 % of control; (dose: 50.0 mg/kg/injection, schedule: Q04DX003 (ip), vehicle: suspension in saline) 102 % of control; (dose: 100.0 mg/kg/injection, schedule: Q04DX003 (ip), vehicle: suspension in saline) 115 % of control.
In the case of `CNCCN=c1ccc2c3c1c(O)c1c(O)ccc(=O)c1c3[nH]n2CCNCCO`, the T/C is 7 % of control and 17 % of control and 26 % of control (dose: 1.56 mg/kg/injection, schedule: Q04DX003 (ip), vehicle: water); 1 % of control and 5 % of control and 8 % of control (dose: 3.12 mg/kg/injection, schedule: Q04DX003 (ip), vehicle: water).
For the compound `CN(C)[C@@H]1C(=O)C(C(N)=O)=C(O)[C@@]2(O)C(=O)C3=C(O)c4c(O)ccc(Cl)c4[C@@](C)(O)[C@H]3C[C@@H]12`, the T/C reads like this: under setting [4], 155 % of control; (dose: 1200.0 mg/kg/injection, schedule: Q04DX003 (sc), vehicle: saline) 113 % of control; (dose: 2400.0 mg/kg/injection, schedule: Q04DX003 (sc), vehicle: saline) 70 % of control.
In the case of `CCOC(=O)c1ccc(NN=NCCF)cc1`, the T/C was 99 % of control (dose: 150.0 mg/kg/injection, schedule: Q04DX003 (ip), vehicle: distilled water + Tween-80 + alcohol); 89 % of control (dose: 300.0 mg/kg/injection, schedule: Q04DX003 (ip), vehicle: distilled water + Tween-80 + alcohol); 84 % of control (dose: 600.0 mg/kg/injection, schedule: Q04DX003 (ip), vehicle: distilled water + Tween-80 + alcohol); 49 % of control (dose: 1200.0 mg/kg/injection, schedule: Q04DX003 (ip), vehicle: distilled water + Tween-80 + alcohol).
For `Cc1ccc(S(=O)(=O)NC(=O)C2C(=O)CC3(CCCCC3)CC2=O)cc1`, the T/C is, setting by setting: under setting [7], 81 % of control; (dose: 600.0 mg/kg/injection, schedule: Q04DX003 (sc), vehicle: Klucel (hydroxypropylcellulose) (HPC)) 95 % of control; (dose: 1200.0 mg/kg/injection, schedule: Q04DX003 (sc), vehicle: Klucel (hydroxypropylcellulose) (HPC)) 121 % of control; (dose: 2400.0 mg/kg/injection, schedule: Q04DX003 (sc), vehicle: Klucel (hydroxypropylcellulose) (HPC)) 117 % of control.
As to `COC(=Nc1ccccc1)SSC(C)C`, the T/C by setting is: (dose: 300.0 mg/kg/injection, schedule: Q04DX003 (sc), vehicle: saline with Tween-80) 90 % of control; (dose: 600.0 mg/kg/injection, schedule: Q04DX003 (sc), vehicle: saline with Tween-80) 99 % of control.
